{"source": "patent US10836792B2", "about": "“Retro-inverso peptide inhibitors of cell migration, extracellular matrix and endothelial invasion by tumor cells” (ISTITUTO NAZIONALE TUMORI IRCCS “FONDAZIONE G. PASCALE”, priority 2016, dated 2020)", "key": {"[1]": {"tested_on": "primary ovarian cancer cells derived from a tumor excision (OV-53)", "assay": "Matrigel invasion (xCELLigence RTCA), OV-53", "assay_type": "cell-based, human", "settings": "10 nM, 20 hrs", "experimental": "(§1) FIG. 8 At the concentration of 10 nM the retro-inverso peptide RI-3 prevents matrigel invasion of tumor cells from human osteosarcoma Saos-2 (A), chondrosarcoma Sarc (B), melanoma A375 (C), metastatic melanoma A375M6 (D), ovarian carcinoma SKOV-3 cells (E), or primary ovarian cancer cells derived from a tumor excision (OV-53) (F), as monitored in real-time for 20 hr as changes in cell index by the xCELLigence RTCA system (Example 8).\n(§2) To investigate the ability of RI-3 to prevents matrigel invasion of tumor cells form different tissue origins, human osteosarcoma Saos-2 (A), chondrosarcoma Sarc (B) melanoma A375 (C), metastatic melanoma A375M6 (D), ovarian carcinoma SKOV-3 cells (E) or primary ovarian cancer cells derived from a tumor excision (OV-53) (F) were seeded on polymerized matrigel and allowed to invade matrigel in the absence (None) or in the presence of 10 nM RI-3. Cell invasion was monitored in real-time for 20 hrs as changes in cell index by the xCELLigence RTCA system. Data represent mean±SD from quadruplicate experiments. All cell lines were able to cross matrigel, although to a different extent. In all case RI-3 reduced matrigel invasion by about 30%, 31%, 64%, 57%, 53% and 68%, of Saos-2, Sarc, A375, A375M6, SKOV-3 and OV-53 cells, respectively."}, "THP1 monocytes": {"tested_on": "THP1 monocytes", "assay": "Trans-endothelial migration through HUVEC monolayer (xCELLigence RTCA), THP-1", "assay_type": "cell-based, human", "settings": "10 nM, 5 hrs", "experimental": "(§3) FIG. 9 At the concentration of 10 nM the retro-inverso peptide RI-3 affects trans-endothelial migration of human chondrosarcoma Sarc (A), melanoma A375 (B), ovarian carcinoma SKOV-3 (C) cells, or THP1 monocytes (D), as monitored by the xCELLigence RTCA system (Example 9).\n(§4) The entry of tumor cells into bloodstream is one of the earliest events of the metastatic process. The ability of RI-3 to affect trans-endothelial migration of human chondrosarcoma Sarc (A) melanoma A375 (B), ovarian carcinoma SKOV-3 (C) cells, or THP1 monocytes (D) was monitored by the xCELLigence RTCA system. Human Umbilical Vein Endothelial Cells (HUVEC) (1×10^4 cells/well) suspended in growth medium, were allowed to grow for 20-25 hrs until they form a confluent monolayer, prior to seeding Sarc, A375, SKOV-3, or THP-1 cells (1×10^4 cells/well) in growth medium in the absence (None) or in the presence of 10 nM RI-3. The experiments were performed twice in quadruplicate. When cells cross the endothelial monolayer, there is a drop in electrical resistance which is monitored in real-time for 5 hrs as the cell index changes due to the rupture of endothelial monolayer. All cell lines were able to reduce endothelial monolayer integrity. The addition of 10 nM RI-3 inhibited the capability of Sarc, A375, SKOV-3, and THP-1 cells to disrupt endothelial monolayers by 17%, 22%, 58%, and 36% respectively."}, "[2]": {"tested_on": "human osteosarcoma Saos-2", "assay": "Matrigel invasion (xCELLigence RTCA), Saos-2", "assay_type": "cell-based", "settings": "10 nM, 20 hrs", "experimental": "as §1, §2"}, "[3]": {"tested_on": "human chondrosarcoma Sarc", "assay": "Trans-endothelial migration through HUVEC monolayer (xCELLigence RTCA), Sarc", "assay_type": "cell-based", "settings": "10 nM, 5 hrs", "experimental": "as §3, §4"}, "ovarian carcinoma SKOV-3": {"tested_on": "ovarian carcinoma SKOV-3", "assay": "Trans-endothelial migration through HUVEC monolayer (xCELLigence RTCA), SKOV-3", "assay_type": "cell-based, human", "settings": "10 nM, 5 hrs", "experimental": "as §3, §4"}, "HT1080 cells": {"tested_on": "HT1080 cells", "assay": "Proliferation of HT1080 cells (xCELLigence)", "assay_type": "cell-based, human", "settings": "10 μM, 2-26 time range", "experimental": "Cell proliferation of HT1080 cells was monitored for 75 hrs using the xCELLigence technology. Cells (1×10^3 cells/well) were seeded on E-plates in growth medium (None) or growth medium plus 10 μM RI-3 and allowed to proliferate at 37° C., 5% CO2. Medium was replaced every 24 hrs (arrows). Impedance value of each well was automatically monitored and expressed as cell index. Data represent mean±SD from a quadruplicate experiment representative of 2 replicates (A). […] In the 2-26 time range the doubling times of cells exposed to diluents or to RI-3 were 16.3828+/−0.22 hrs and 17.7648+/−0.27 hrs, respectively (B)."}, "melanoma A375 [4]": {"tested_on": "melanoma A375", "assay": "Trans-endothelial migration through HUVEC monolayer (xCELLigence RTCA), A375", "assay_type": "cell-based, human", "settings": "10 nM, 5 hrs", "experimental": "as §3, §4"}, "melanoma A375 [5]": {"tested_on": "melanoma A375", "assay": "Matrigel invasion (xCELLigence RTCA), A375", "assay_type": "cell-based, human", "settings": "10 nM, 20 hrs", "experimental": "as §1, §2"}, "[6]": {"tested_on": "metastatic melanoma A375M6", "assay": "Matrigel invasion (xCELLigence RTCA), A375M6", "assay_type": "cell-based, human", "settings": "10 nM, 20 hrs", "experimental": "as §1, §2"}, "human Sarc cells": {"tested_on": "human Sarc cells", "assay": "Human Sarc cell tumors in the flank of CD1 nude mice", "assay_type": "in vivo", "settings": "6 mg/Kg i.p. every day for 10 days", "experimental": "FIG. 11 The intraperitoneal (i.p.) administration of 6 mg/Kg of the retro-inverso peptide RI-3 every day for 10 days reduces in vivo tumor growth and vascular infiltration by human chondrosarcoma Sarc cells in nude mice. (A) Time-dependent average of treated and control mice. (B) Tumor volumes measured at different time points. (C) Tumors excised after 10 days. (D) CD31 immuno-staining of formalin fixed paraffin sections of the excised tumors. (E) Counts of vascular channels harboring red blood cells on CD31 immuno-stained sections. (F) Quantification of Circulating Tumor Cells (CTCs). (Example 11)\nTen six-eight week old, CD1 female nude mice received the injection of human Sarc cells as a single-cell suspension (1×10^6 cells in 100 μl PBS, 96% viability) into the right flank. Five animals received i.p-administration of 6 mg/Kg RI-3 every day for 10 days, and five received injections of vehicle only (CTRL). A. Time-dependent average weight was monitored every two days. B. Tumor volumes measured at different time points with a caliper, using the formula: ½×(width)^2×length (mm). After 10 days, blood samples (˜500 μL/mouse) from the retroorbital venous plexus of mice were collected and processed for determination of Circulating Tumor Cells (CTC)s. Then, animals were sacrificed and the excised tumors (C) were fixed in buffered formalin and processed for paraffin sectioning. Tumor vascularization was assessed by counting vascular channels harbouring red blood cells on CD31 immuno-stained sections (D) in 5 randomly chosen fields per section, in at least two sections per tumor at ×200 (E). To quantify CTCs, DNA from nucleated cells of murine blood samples was purified and quantitated by Real-Time PCR using primers targeting human Alu-sequences. Number of CTCs was calculated by comparing the obtained amplification curves with others generated in spiking experiments, which were included in every run (F).\nTumor volumes of vehicle- and RI-3-treated mice were 445+/−285 and 112+/−41 mm^3, respectively, with p<0.05 (B). After 10 days, animals were sacrificed and tumors excised (C). According with the ability of RI-3 to prevent in vitro formation of a capillary network, the intratumoral microvessel density was reduced in tumors from animals treated with RI-3 as compared to those treated with vehicle alone (D-E)."}}, "note": "Non-standard residues stand in square brackets, D forms with d. Residues, ends and D or L forms follow the SMILES beside them. Aib = CC(C)(N)C(=O)O"}
{"smiles": "CC(=O)N[C@H](Cc1ccc(O)cc1)C(=O)N[C@H](CCCNC(=N)N)C(=O)NC(C)(C)C(=O)N[C@H](CCCNC(=N)N)C(N)=O", "note": "[RI-3, Ac-(D)-Tyr-(D)-Arg-Aib-(D)-Arg-NH2] (Ac-[dY][dR][Aib][dR]-NH2)", "values": [{"measurement": "reduction of matrigel invasion", "setting": "[1]", "value": "~68", "unit": "%"}, {"measurement": "inhibition of the capability to disrupt endothelial monolayers", "setting": "THP1 monocytes", "value": 36, "unit": "%"}, {"measurement": "reduction of matrigel invasion", "setting": "[2]", "value": "about 30%"}, {"measurement": "inhibition of the capability to disrupt endothelial monolayers", "setting": "[3]", "value": 17, "unit": "%"}, {"measurement": "inhibition of the capability to disrupt endothelial monolayers", "setting": "ovarian carcinoma SKOV-3", "value": 58, "unit": "%"}, {"measurement": "doubling time during exponential growth", "setting": "HT1080 cells", "value": "17.7648 ± 0.27", "unit": "h"}, {"measurement": "inhibition of the capability to disrupt endothelial monolayers", "setting": "melanoma A375 [4]", "value": 22, "unit": "%"}, {"measurement": "reduction of matrigel invasion", "setting": "melanoma A375 [5]", "value": "~64", "unit": "%"}, {"measurement": "reduction of matrigel invasion", "setting": "[6]", "value": "~57", "unit": "%"}, {"measurement": "body weight", "setting": "human Sarc cells", "value": "without clear changes in body weight"}, {"measurement": "mice with CTCs in blood samples", "setting": "human Sarc cells", "value": "3/5"}, {"measurement": "reduction of the number of circulating sarcoma cells in murine blood samples", "setting": "human Sarc cells", "value": 74.5, "unit": "%"}, {"measurement": "signs of toxicity", "setting": "human Sarc cells", "value": "no signs of toxicity"}, {"measurement": "tumor volume", "setting": "human Sarc cells", "value": "112+/−41 mm^3"}, {"measurement": "Circulating Tumor Cells in blood", "setting": "human Sarc cells; blood after 10 days", "value": "2.4+/−2 CTCs/mL"}, {"measurement": "intratumoral microvessel density (CD31)", "setting": "human Sarc cells; vs vehicle", "value": "reduced"}]}
